Assays:
JAK = assay: Biochemical Kinase Assay Protocol (JAK); settings: for Activity Note: JAK: compound list, + = noted target activity, number of * = preference; for JAK activity: compared to compounds of the disclosure
Description: Biochemical Kinase Assay Protocol (JAK, TrkA, Syk, Tyk2)
Reagent: Base Reaction buffer; 20 mM Hepes (pH 7.5), 10 mM MgCl2, 1 mM EGTA, 0.02% Brij™ 35, 0.02 mg/ml BSA, 0.1 mM Na3VO4, 2 mM DTT, 1% DMSO, where required cofactors are added individually to each kinase reaction.
• 1. Prepare indicated substrate in freshly prepared Base Reaction Buffer • 2. Deliver any required cofactors to the substrate solution above • 3. Deliver indicated kinase (JAK or TrkA) into the substrate solution and gently mix • 4. Deliver compounds in DMSO into the kinase reaction mixture by Acoustic technology (Echo550; nanoliter range), incubate for 20 minutes at room temperature • 5. Deliver 33P-ATP into the reaction mixture to initiate the reaction. • 6. Incubate kinase reaction for 2 hours at room temperature • 7. Reactions are spotted onto P81 ion exchange paper • 8. Detect kinase activity by filter-binding method. PDE4B Phosphodiesterase Assay

Recombinant human PDE4B = biological target: T1, Recombinant human PDE4B (Homo sapiens, UniProt Q07343); assay: PDE4B Phosphodiesterase Assay; format: biochemical; settings: compared to compounds of the disclosure
T1 construct: aa 305-end; GST (N); made in house; host or cells: Sf9 insect cells (baculovirus)
T1 sequence (Q07343 305-736 limits assumed): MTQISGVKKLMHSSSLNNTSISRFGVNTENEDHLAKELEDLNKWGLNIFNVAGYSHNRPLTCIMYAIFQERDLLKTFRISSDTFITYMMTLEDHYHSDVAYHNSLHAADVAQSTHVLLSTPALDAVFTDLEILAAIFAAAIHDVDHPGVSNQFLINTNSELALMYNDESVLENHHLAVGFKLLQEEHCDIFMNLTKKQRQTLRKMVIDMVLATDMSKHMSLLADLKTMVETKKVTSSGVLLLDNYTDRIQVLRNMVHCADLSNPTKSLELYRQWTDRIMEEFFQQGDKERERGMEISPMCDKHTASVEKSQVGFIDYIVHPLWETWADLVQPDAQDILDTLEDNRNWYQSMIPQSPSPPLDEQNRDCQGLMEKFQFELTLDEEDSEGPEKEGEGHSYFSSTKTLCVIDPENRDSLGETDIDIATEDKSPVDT
Method in brief: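 N-terminal GST-tagged human PDE4B (aa 305-end, Sf9-expressed) preincubated 10 min with compound in 10 mM Tris-HCl pH 7.5, 5 mM MgCl2, 0.01% Brij 35, 1 mM DTT, 1% DMSO, then 1 h at room temperature with 1 μM cAMP. AMP detected by Transcreener fluorescence polarization (Ex/Em 620/688), converted to nM product; % activity relative to DMSO.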

| Compound | Activity Note: JAK (JAK) | JAK activity (JAK) | PDE4 activity (Recombinant human PDE4B) |
| --- | --- | --- | --- |
| CCC(CC)Nc1nc(Nc2ccc3c(c2)B(O)OC3)ncc1C [6-((5-methyl-4-(pentan-3-ylamino)pyrimidin-2-yl)amino)benzo[c][1,2]oxaborol-1(3H)-ol] | JAK+* | – | – |
| CCC(CC)Nc1nc(Nc2cc(Cl)c3c(c2)C(C)(C)OB3O)ncc1C [7-chloro-3,3-dimethyl-5-((5-methyl-4-(pentan-3-ylamino)pyrimidin-2-yl)amino)benzo[c][1,2]oxaborol-1(3H)-ol] | JAK+*** | – | – |
| Cc1cnc(Nc2cc(Cl)c3c(c2)C(C)(C)OB3O)nc1Nc1ccccc1 [7-chloro-3,3-dimethyl-5-((5-methyl-4-(phenylamino)pyrimidin-2-yl)amino)benzo[c][1,2]oxaborol-1(3H)-ol] | JAK+*** | – | – |
| CC1(C)OB(O)c2c(Cl)cc(Nc3ncc(Cl)c(NC4CCCC4)n3)cc21 [7-chloro-5-((5-chloro-4-(cyclopentylamino)pyrimidin-2-yl)amino)-3,3-dimethylbenzo[c][1,2]oxaborol-1(3H)-ol] | JAK+*** | – | – |
| OB1OCc2cc(Nc3ncc(Cl)c(NC4CCCC4)n3)cc(Cl)c21 [7-chloro-5-((5-chloro-4-(cyclopentylamino)pyrimidin-2-yl)amino)benzo[c][1,2]oxaborol-1(3H)-ol] | JAK+*** | – | – |
| CCC(CC)Nc1nc(Nc2cc(Cl)c3c(c2)COB3O)ncc1C [7-chloro-5-((5-methyl-4-(pentan-3-ylamino)pyrimidin-2-yl)amino)benzo[c][1,2]oxaborol-1(3H)-ol] | JAK+*** | – | – |
| Cc1cnc(Nc2cc(Cl)c3c(c2)COB3O)nc1Nc1ccccc1 [7-chloro-5-((5-methyl-4-(phenylamino)pyrimidin-2-yl)amino)benzo[c][1,2]oxaborol-1(3H)-ol] | JAK+*** | – | – |
| CCc1cc(Nc2ncc(C)c(NC(CC)CC)n2)cc2c1B(O)OC2 [7-ethyl-5-((5-methyl-4-(pentan-3-ylamino)pyrimidin-2-yl)amino)benzo[c][1,2]oxaborol-1(3H)-ol] | JAK+*** | – | – |
| CCc1cc(Nc2ncc(C)c(Nc3ccccc3)n2)cc2c1B(O)OC2 [7-ethyl-5-((5-methyl-4-(phenylamino)pyrimidin-2-yl)amino)benzo[c][1,2]oxaborol-1(3H)-ol] | JAK+*** | – | – |
| Cc1cnc(Nc2ccc3c(c2F)B(O)OC3)nc1Nc1cccc(S(C)(=O)=O)c1 [7-fluoro-6-((5-methyl-4-((3-(methylsulfonyl)phenyl)amino)pyrimidin-2-yl)amino)benzo[c][1,2]oxaborol-1(3H)-ol] | JAK+* | – | – |
| COc1cc(Nc2ncc(C)c(SC)n2)cc2c1B(O)OC2 [7-methoxy-5-((5-methyl-4-(methylthio)pyrimidin-2-yl)amino)benzo[c][1,2]oxaborol-1(3H)-ol] | JAK+** | – | – |
| CCC(CC)Nc1nc(Nc2cc(C)c3c(c2)COB3O)ncc1C [7-methyl-5-((5-methyl-4-(pentan-3-ylamino)pyrimidin-2-yl)amino)benzo[c][1,2]oxaborol-1(3H)-ol] | JAK+*** | – | – |
| Cc1cnc(Nc2cc(C)c3c(c2)COB3O)nc1Nc1ccccc1 [7-methyl-5-((5-methyl-4-(phenylamino)pyrimidin-2-yl)amino)benzo[c][1,2]oxaborol-1(3H)-ol] | JAK+*** | – | – |
| Cc1cnc(Nc2ccc3c(c2C)B(O)OC3)nc1Nc1cccc(S(C)(=O)=O)c1 [7-methyl-6-((5-methyl-4-((3-(methylsulfonyl)phenyl)amino)pyrimidin-2-yl)amino)benzo[c][1,2]oxaborol-1(3H)-ol] | JAK+* | – | – |
| Cc1cnc(N(C)c2ccc3c(c2)COB3O)nc1OC1CCCCC1 [A, 5-((4-(cyclohexyloxy)-5-methylpyrimidin-2-yl)(methyl)amino)benzo[c][1,2]oxaborol-1(3H)-ol, reference compound] | – | no JAK activity or significantly decreased JAK activity | diminish in PDE4 activity |
| Cc1cnc(N(C)c2ccc3c(c2)COB3O)nc1NC1CCCC1 [B, 5-((4-(cyclopentylamino)-5-methylpyrimidin-2-yl)(methyl)amino)benzo[c][1,2]oxaborol-1(3H)-ol, reference compound] | – | no JAK activity or significantly decreased JAK activity | diminish in PDE4 activity |
| CCc1cc(N(c2ncc(C)c(NC(CC)CC)n2)S(=O)(=O)C(F)(F)F)cc2c1B(O)OC2 [N-(7-ethyl-1-hydroxy-1,3-dihydrobenzo[c][1,2]oxaborol-5-yl)-1,1,1-trifluoro-N-(5-methyl-4-(pentan-3-ylamino)pyrimidin-2-yl)methanesulfonamide] | JAK+* | – | – |
